B1: IFNG: IFNγ (C-60724 Promokine), positive control (protein, UniProt P01579 24-161, looked up)
Interferon gamma: QDPYVKEAENLKKYFNAGHSDVADNGTLFLGILKNWKEESDRKIMQSQIVSFYFKLFKNFKDDQSIQKSVETIKEDMNVKFFNSNKKKRDDFEKLTNYSVTDLNVQRKAIHELIQVMAELSPAAKTGKRKRSQMLFRG

Legend:
Assay type in all cases: cell-based, human
[1] = tested on: HLA-B and PD-L1 expression in ShC A549 cells; test: IFN/HLA-B/PD-L1 pathway expression (qRT-PCR, western blot, flow cytometry) in shControl A549 cells; conditions: for Induction of HLA-B and PD-L1 expression: ShC (SQSTM1 positive) A549 cells, 5-Aza 500 nM, 5 and 6 days, IFNG 50 ng/ml
[2] = tested on: shControl (ShC) A549 cells; test: Cell viability / Crystal Violet Cytotoxicity Assay, dose-response IC50, shControl A549 cells
Description: (§1) The majority of experiments presented in this study was performed with the human KRAS G12S/SKT11 Q37* co-mutated NSCLC A549 cells (American Type Tissue Collection, ATCC). All cells were maintained in Dulbecco's-modified minimum essential medium and Ham's F-12 medium (DMEM/F12 Glutamax; Life Technologies) supplemented with 10% fetal bovine serum (Dutcher), 2% Sodium Pyruvate, and 1% Penicillin-Streptomycin (Life technologies). To establish SQSTM1 knockdown stable cell lines, cells were transduced with small hairpin RNAs (shRNAs) lentiviruses that target the mRNA coding sequence of SQSTM1. Two distinct SQSTM1 shRNAs (Sigma, human, NM_003900, SQSTM1 #1, TRCN0000007237, and SQSTM1 #2, TRCN0000007236) were used to minimize sequence-dependent off-target effects. As controls, autophagy was inhibited at the initiation step by ATG5 (Sigma, human, NM_004849, ATG5 #1, TRCN0000151963) or ATG7 shRNA (Sigma, human, NM_006395, TRCN0000007584). For this purpose, the targeted and control (Sigma; SHC002V) shRNA lentivirus were transduced into the cells. ShRNA-mediated protein downregulation was controlled by qRT-PCR or immunoblotting with specific primers and antibodies (see for shRNA, primer, and antibody details the supplemental Tables 1 to 3).
(§2) For all experiments, cells were seeded in 6-well plates or 60 mm culture dishes and incubated until they reached 60-70% confluency.

ShSQSTM1 A549 cells = test: Cell viability / Crystal Violet Cytotoxicity Assay, dose-response IC50, shSQSTM1 A549 cells
Description: as §1, §2

[3] = tested on: HLA-B and PD-L1 expression in ShSQSTM1 A549 cells; test: IFN/HLA-B/PD-L1 pathway expression (qRT-PCR, western blot, flow cytometry) in SQSTM1-depleted A549 cells; conditions: docetaxel 5 nM; for TBK1/STAT1 phosphorylation and expression of IFN, HLA-B and PD-L1 in SQSTM1-depleted cells: Cisplatin 10 μM, IFNG 50 ng/ml
Description: as §2
Quantitative real-time polymerase chain reaction analysis was performed on equal amounts of cDNA using the SYBR Green master mix and an Applied StepOne Plus PCR system (Life technologies). Relative gene expression changes were quantified using the 2 [−ΔΔCt] method and normalized to the housekeeping gene RPLP0 compared to the untreated cell samples.
Cell-surface expression of PD-L1 was examined using flow cytometry. […] Flow cytometry analysis was performed on a Cytoflex flow cytometer (10,000 cells, Cytoflex software). The MFI (PD-L1-isotype) is calculated as the MFI (PD-L1) is subtracted by the MFI (isotype control).

[4] = tested on: 53BP1-positive foci in A549 cells; test: Global DNA damage measured by 53BP1 focus formation (immunofluorescence); conditions: Cisplatin 10 μM, FIG. 18
Description: At the indicated time, global DNA damage (A) was measured by 53BP1 focus formation (right immunofluorescence staining, 53BP1 red, Dapi, blue. Left, cell percentage with more than five spots).

[5] = Shc A549, dose-response curves (Cell Treatments)
[6] = ShSQSTM1 A549, dose-response curves (Cell Treatments)
[7] = Homo sapiens, Shc A549, dose-response curves (Cell Treatments)
[8] = Homo sapiens, ShSQSTM1 A549, dose-response curves (Cell Treatments)

Molecule | Induction of HLA-B and PD-L1 expression [1] | TBK1/STAT1 phosphorylation and expression of IFN, HLA-B and PD-L1 in SQSTM1-depleted cells [3] | IC50 [2, 7] [nM] | IC50 (ShSQSTM1 A549 cells; [8]) [nM] | further results
Nc1ncn([C@@H]2O[C@H](CO)[C@@H](O)[C@H]2O)c(=O)n1 [5-Azacytidine] | recapitulated the late expression of HLA-B and PD-L1 | – | – | – | –
N.N.[Cl][Pt][Cl] [Cisplatin] | most effective drug for inducing HLA-B and PD-L1 | did not up-regulate | – | – | IC50 [2, 5]: 24000 nM; IC50 ([2]; control ShC A549 cells, Cisplatin 5 days, FIG. 14): 24000 ± 1400 nM; IC50 (ShSQSTM1 A549 cells; [6]): 47700 nM; IC50 (ShSQSTM1 A549 cells; ShSQSTM1 A549 cells, Cisplatin 5 days, FIG. 14): 51000 ± 5300 nM; Start of formation of 53BP1-positive foci [4]: 6 h; Time of peak value of 53BP1-positive foci [4]: 16 h
CC(=O)O[C@@]12CO[C@@H]1C[C@H](O)[C@@]1(C)C(=O)[C@H](O)C3=C(C)[C@@H](OC(=O)[C@H](O)[C@@H](NC(=O)OC(C)(C)C)c4ccccc4)C[C@@](O)([C@@H](OC(=O)c4ccccc4)[C@H]21)C3(C)C [Docetaxel] | – | significantly rescued | 364 | 21.3 | Growth arrest and DNMT1 downregulation ([1]; Shc A549 cells, docetaxel 5 nM, qRT-PCR): did trigger growth arrest and DNMT1 downregulation; Growth arrest and DNMT1 downregulation ([3]; qRT-PCR): did trigger growth arrest and DNMT1 downregulation
COc1cccc2c1C(=O)c1c(O)c3c(c(O)c1C2=O)C[C@@](O)(C(=O)CO)C[C@@H]3O[C@H]1C[C@H](N)[C@H](O)[C@H](C)O1 [Doxorubicin] | recapitulated the late induction of this pathway | – | 364 | 486 | –
O=C(NCCCNc1nc(Nc2cccc(CN3CCOCC3)c2)ncc1C1CC1)C1CCC1 [MRT 67307] | – | – | – | – | Block of Cisplatin ability to induce IFN/HLA B/PD-L1 ([1]; co-treatment with Cisplatin 10 μM, MRT 67307 10 μM, Ruxolitinib 5 μM, FIG. 26): sufficient to block
O=C1[O][Pt]2([NH][C@@H]3CCCC[C@H]3[NH]2)[O]C1=O [Oxaliplatin] | recapitulated the late induction of this pathway | – | – | – | IC50 [2, 5]: 2610 nM; IC50 (ShSQSTM1 A549 cells; [6]): 4510 nM
CC(=O)O[C@H]1C(=O)[C@@]2(C)[C@H]([C@H](OC(=O)c3ccccc3)[C@]3(O)C[C@H](OC(=O)[C@H](O)[C@@H](NC(=O)c4ccccc4)c4ccccc4)C(C)=C1C3(C)C)[C@]1(OC(C)=O)CO[C@@H]1C[C@@H]2O [Paclitaxel] | – | – | 1.4 | 3.7 | –
CO/C1=C\C(C)=C\[C@@H](C)[C@@H](O)[C@@H](C)C/C(C)=C/C=C/[C@H](OC)[C@@H]([C@@H](C)[C@@H](O)[C@H](C)[C@@]2(O)C[C@@H](O)[C@H](C)[C@@H](C(C)C)O2)OC1=O [bafA1] | – | – | – | – | HLA-B and PD-L1 expression on pharmacological autophagy inhibition ([1]; A549 cells, data not shown): enhanced expression of HLA-B and PD-L1
B1 | induced STAT1 phosphorylation, HLA-B, and PD-L1 expression | induced STAT1 phosphorylation, HLA-B, and PD-L1 expression | – | – | –
